Reference: US7700593B2, “Imidazo- and triazolo-pyridine compounds and methods of use thereof” (Amgen Inc., priority 2006, dated 2010)

Experiments:
p38α = p38α (Homo sapiens, UniProt Q16539); test: p38 in-vitro HTRF enzyme assay; type: biochemical; settings: IC50 value ranges
Experimental: p38 In-Vitro HTRF Enzyme Assay
The compounds of the invention can be tested for their respective affinities for the p38 protein using a conventional p38 in-vitro enzyme activity assay. For example, a P38-alpha HTRF assay may be used to measure the protein's in-vitro phosphorylation activity, and the data analyzed using time resolved fluorimetry techniques (FRET). A p38 HTRF assay is as follows. The kinase reaction buffer for p38α, p38β, p38δ and p38γ HTRF assays consists of 50 mM Tris-pH 7.5, 5 mM MgCl2, 0.1 mg/mL BSA, 100 μM Na3VO4 and 0.5 mM DTT. The HTRF detection buffer contains 100 mM HEPES-pH 7.5, 100 mM NaCl, 0.1% BSA, 0.05% Tween-20, and 10 mM EDTA. Each compound was dissolved in 100% DMSO and serially diluted (3 fold, 10 point) in a polypropylene 96-well microtiter plate (drug plate). The final starting concentration of the compound in the p38α and p38β enzymatic assays was about 1 μM. The final starting concentration of each compound in the p38δ and p38γ enzymatic assays was about 10 μM. The p38α, p38β, p38δ and p38γ kinase reactions were carried out in a polypropylene 96-well black round bottom assay plate in total volume of 30 μL kinase reaction buffer. Appropriate concentration of purified and activated enzyme (recombinant human) was mixed with indicated concentration of ATP and 100 nM GST-ATF2-Avitag, in the presence or absence (HI control) of each compound. In the absence of enzyme, the background was measured as LO control. HI controls and LO controls contained only DMSO. The reaction was allowed to incubate for 1 hour at RT. […] After 60 minutes incubation at room temperature, the assay plate was read in a Discovery Plate Reader. The wells were excited with coherent 320 nm light and the ratio of delayed ([…] post excitation) emissions at […] (native europium fluorescence) and 665 nm (europium fluorescence transferred to allophycocyanin—an index of substrate phosphorylation) was determined (Park et al, 1999). The resulting data was analyzed by taking the proportion of substrate phosphorylated in the kinase reaction in the presence of each individual compound and comparing it with that phosphorylated in the presence of DMSO vehicle alone (HI control). The data was calculated using the formula: % control (POC)=(compound−average LO)/(average HI−average LO)*100. Data (consisting of POC and inhibitor concentration in μM) was fitted to a 4-parameter equation (y=A+((B−A)/(1+((x/C)^D))), where A is the minimum y (POC) value, B is the maximum y (POC), C is the x (compound concentration) at the point of inflection and D is the slope factor, using a Levenburg-Marquardt non-linear regression algorithm. The inhibition constant (Ki) of the inhibitor was estimated from the IC50 (compound concentration at the point of inflection C) using the Cheng-Prussof equation: Ki=IC50/(1+S/Km), where S is the ATP substrate concentration, and Km is the Michaelis constant for ATP as determined experimentally. All results were expressed as the mean±the standard error of the mean. Data acquisition and non-linear regression algorithms were performed using Activity Base v5.2 and XLfit software v4.1 respectively. Additional assay information may be obtained in Park Y W, Cummings R T, Wu L, et al. Homogeneous Proximity Tyrosine Kinase Assays Scintillation Proximity Assay versus Homogeneous Time-Resolved Fluorescence. Analytical Biochemistry. 1999; 269: 94-104.

THP1 cells = test: Lipopolysaccharide-activated THP1 cell TNF production assay; type: cell-based, human; settings: Homo sapiens, THP-1; LPS-induced TNF-α production in THP1 cells
Experimental: Lipopolysaccharide-Activated THP1 Cell TNF Production Assay
THP1 cells are resuspended in fresh THP1 media (RPMI 1640, 10% heat-inactivated FBS, 1×PGS, 1×NEAA, plus 30 μM βME) at a concentration of 1E6/mL. One hundred microliters of cells per well are plated in a polystyrene 96-well tissue culture. One microgram per mL of bacterial LPS is prepared in THP1 media and is transferred to the wells. Test compounds are dissolved in 100% DMSO and are serially diluted 3-fold in a polypropylene 96-well microtiter plate (drug plate). HI control and LO control wells contain only DMSO. One microliter of test compound from the drug plate followed by 10 μL of LPS are transferred to the cell plate. The treated cells are induced to synthesize and secrete TNF-α at 37° C. for 3 h. Forty microliters of conditioned media are transferred to a 96-well polypropylene plate containing 110 μL of ECL buffer (50 mM Tris-HCl pH 8.0, 100 mM NaCl, 0.05% Tween 20, 0.05% NaN3 and 1% FBS) supplemented with 0.44 nM MAB610 monoclonal Ab (R&D Systems), 0.34 nM ruthenylated AF210NA polyclonal Ab (R&D Systems) and 44 μg/mL sheep anti-mouse M280 Dynabeads (Dynal). After a 2 h incubation at room temperature with shaking, the reaction is read on the ECL M8 Instrument (IGEN Inc.). A low voltage is applied to the ruthenylated TNF-α immune complexes, which in the presence of TPA (the active component in Origlo), results in a cyclical redox reaction generating light at […]. The amount of secreted TNF-α in the presence of compound compared with that in the presence of DMSO vehicle alone (HI control) is calculated using the formula: % control (POC)=(cpd−average LO)/(average HI−average LO)*100. Data (consisting of POC and inhibitor concentration in μM) is fitted to a 4-parameter equation (y=A+((B−A)/(1+((x/C)^D))), where A is the minimum y (POC) value, B is the maximum y (POC), C is the x (cpd concentration) at the point of inflection and D is the slope factor) using a Levenburg-Marquardt non-linear regression algorithm.

monocytes = test: Lipopolysaccharide-activated monocyte TNF production assay (LPS induced TNF release); type: cell-based, human; settings: Homo sapiens, Monocyte; LPS induced TNF release from monocytes; read-out: LPS induced TNFa
Experimental: Lipopolysaccharide-Activated Monocyte TNF Production Assay
Test compounds were evaluated in vitro for the ability to inhibit the production of TNF by monocytes activated with bacterial lipopolysaccharide (LPS). Fresh residual source leukocytes (a byproduct of plateletpheresis) were obtained from a local blood bank, and peripheral blood mononuclear cells (PBMCs) were isolated by density gradient centrifugation on Ficol-Paque Plus (Pharmacia). PBMCs were suspended at 2×10^6/mL in DMEM supplemented to contain 2% FCS, 10 mM, 0.3 mg/mL […], 100 U/mL penicillin G and […] streptomycin sulfate (complete media). Cells were plated into Falcon flat bottom, 96 well culture plates (200 μL/well) and cultured overnight at 37° C. and 6% CO2. Non-adherent cells were removed by washing with 200 μl/well of fresh medium. Wells containing adherent cells (˜70% monocytes) were replenished with 100 μL of fresh medium.
Preparation of Test Compound Stock Solutions
Test compounds were dissolved in […]. Compound stock solutions were prepared to an initial concentration of […]. Stocks were diluted initially to […] in complete media. Nine two-fold serial dilutions of each compound were then prepared in complete medium.
Treatment of Cells with Test Compounds and Activation of TNF Production with Lipopolysaccharide
One hundred microliters of each test compound dilution were added to microtiter wells containing adherent monocytes and 100 μL complete medium. Monocytes were cultured with test compounds for 60 min at which time 25 μL of complete medium containing 30 ng/mL lipopolysaccharide from E. coli K532 were added to each well. Cells were cultured an additional 4 hrs. Culture supernatants were then removed and TNF presence in the supernatants was quantified using an ELISA.
Flat bottom, 96 well Corning High Binding ELISA plates were coated overnight (4° C.) with 150 μL/well of 3 μg/mL murine anti-human TNF-α MAb (R&D Systems #MAB210). Wells were then blocked for 1 h at room temperature with 200 μL/well of CaCl2-free ELISA buffer supplemented to contain 20 mg/mL BSA (standard ELISA buffer: […], 150 mM NaCl, 2 mM CaCl2, 0.15 mM thimerosal, pH 7.4). Plates were washed and replenished with 100 μL of test supernatants (diluted 1:3) or standards. Standards consisted of eleven 1.5-fold serial dilutions from a stock of 1 ng/mL recombinant human TNF (R&D Systems). Plates were incubated at room temperature for 1 h on orbital shaker (300 rpm), washed and replenished with 100 μL/well of 0.5 μg/mL goat anti-human TNF-α (R&D systems #AB-210-NA) biotinylated at a 4:1 ratio. Plates were incubated for 40 min, washed and replenished with 100 μL/well of alkaline phosphatase-conjugated streptavidin (Jackson ImmunoResearch #016-050-084) at 0.02 μg/mL. Plates were incubated 30 min, washed and replenished with 200 μL/well of 1 mg/mL of p-nitrophenyl phosphate.
Standard curve data were fit to a second order polynomial and unknown TNF-α concentrations determined from their OD by solving this equation for concentration. TNF concentrations were then plotted vs. test compound concentration using a second order polynomial. This equation was then used to calculate the concentration of test compounds causing a 50% reduction in TNF production.

Sequence of p38α (Q16539 whole entry): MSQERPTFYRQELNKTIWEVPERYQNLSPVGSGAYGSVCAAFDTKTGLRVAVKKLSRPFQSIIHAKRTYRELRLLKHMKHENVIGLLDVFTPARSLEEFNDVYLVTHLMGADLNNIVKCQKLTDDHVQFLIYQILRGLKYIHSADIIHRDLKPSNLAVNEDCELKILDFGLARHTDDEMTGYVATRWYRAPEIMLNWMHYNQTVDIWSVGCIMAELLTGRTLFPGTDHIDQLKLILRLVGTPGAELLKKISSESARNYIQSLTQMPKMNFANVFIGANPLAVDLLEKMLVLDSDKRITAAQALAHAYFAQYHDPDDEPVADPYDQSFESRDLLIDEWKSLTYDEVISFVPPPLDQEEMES

SMILES	IC50 (p38α) [nM]	IC50 (THP1 cells) [nM]	IC50 (monocytes) [nM]
Cc1ccc(C(=O)Nc2ccnn2C)cc1-c1ccn2c(C3(C(F)(F)F)CC3)nnc2c1 [Example 20, 4-methyl-N-(1-methyl-1H-pyrazol-5-yl)-3-(3-(1-(trifluoromethyl)cyclopropyl)[1,2,4]triazolo[4,3-a]pyridin-7-yl)benzamide]	< 25	< 25	
Cc1ccc(C(=O)NC2CC2)cc1-c1ccn2c(-c3c(F)cccc3F)nnc2c1 [Example 65, N-cyclopropyl-3-(3-(2,6-difluorophenyl)[1,2,4]triazolo[4,3-a]pyridin-7-yl)-4-methylbenzamide]		< 25	< 25
Cc1cc(F)c(C(=O)NC2CC2)cc1-c1ccn2c(-c3sccc3C)nnc2c1 [Example 67, N-cyclopropyl-2-fluoro-4-methyl-5-(3-(3-methyl-2-thienyl)[1,2,4]triazolo[4,3-a]pyridin-7-yl)benzamide]		25 to 100	100 to 250
Cc1cc(F)c(C(=O)Nc2ccnn2C)cc1-c1ccn2c(-c3sccc3C)nnc2c1 [Example 68, 2-fluoro-4-methyl-N-(1-methyl-1H-pyrazol-5-yl)-5-(3-(3-methyl-2-thienyl)[1,2,4]triazolo[4,3-a]pyridin-7-yl)benzamide]		< 25	100 to 250
Cc1cc(F)c(C(=O)Nc2ccnn2C)cc1-c1ccn2c(-c3ccccc3Cl)nnc2c1 [Example 71, 5-(3-(2-chlorophenyl)[1,2,4]triazolo[4,3-a]pyridin-7-yl)-2-fluoro-4-methyl-N-(1-methyl-1H-pyrazol-5-yl)benzamide]		25 to 100	100 to 250
Cc1cc(F)c(C(=O)NC2CC2)cc1-c1ccn2c(-c3c(F)cccc3Cl)nnc2c1 [Example 72, 5-(3-(2-chloro-6-fluorophenyl)[1,2,4]triazolo[4,3-a]pyridin-7-yl)-N-cyclopropyl-2-fluoro-4-methylbenzamide]		25 to 100	25 to 100
Cc1cc(F)c(C(=O)Nc2ccnn2C)cc1-c1ccn2c(-c3c(F)cccc3Cl)nnc2c1 [Example 73, 5-(3-(2-chloro-6-fluorophenyl)[1,2,4]triazolo[4,3-a]pyridin-7-yl)-2-fluoro-4-methyl-N-(1-methyl-1H-pyrazol-5-yl)benzamide]		< 25	25 to 100

Next, values leading:

IC50 (p38α) [nM]	IC50 (THP1 cells) [nM]	IC50 (monocytes) [nM]	SMILES
	25 to 100	100 to 250	Cc1c(F)cc(C(=O)NC2CC2)cc1-c1ccn2c(C(C)(C)C)nnc2c1C [Example 76, N-cyclopropyl-3-(3-(1,1-dimethylethyl)-8-methyl[1,2,4]triazolo[4,3-a]pyridin-7-yl)-5-fluoro-4-methylbenzamide]
	25 to 100	100 to 250	Cc1ccc(C(=O)NC2CC2)cc1-c1ccn2c(C(C)(C)C)nnc2c1C [Example 77, N-cyclopropyl-3-(3-(1,1-dimethylethyl)-8-methyl[1,2,4]triazolo[4,3-a]pyridin-7-yl)-4-methylbenzamide]
< 25			Cc1ccc(C(=O)NC2CC2)cc1-c1ccn2c(-c3c(C)cccc3F)nnc2c1 [Example 84, N-cyclopropyl-3-(3-(2-fluoro-6-methylphenyl)[1,2,4]triazolo[4,3-a]pyridin-7-yl)-4-methylbenzamide]
< 25			COc1ccccc1-c1nnc2cc(-c3cc(C(=O)NC4CC4)ccc3C)ccn12 [Example 85, N-cyclopropyl-4-methyl-3-(3-(2-(methyloxy)phenyl)[1,2,4]triazolo[4,3-a]pyridin-7-yl)benzamide]
	25 to 100	100 to 250	Cc1ccc(C(=O)NC2CC2)cc1-c1ccn2c([C@@H](C)C(F)(F)F)nnc2c1 [Example 87, N-cyclopropyl-4-methyl-3-(3-((1R)-2,2,2-trifluoro-1-methylethyl)[1,2,4]triazolo[4,3-a]pyridin-7-yl)benzamide]
	250 to 1000	1000 to 5000	Cc1ccc(C(=O)NC2CC2)cc1-c1ccn2c(N3CCNC3=O)nnc2c1 [Example 100, N-cyclopropyl-4-methyl-3-(3-(2-oxo-1-imidazolidinyl)[1,2,4]triazolo[4,3-a]pyridin-7-yl)benzamide]
